Experimental findings from paper PMC9101764, “Synthesis and In Vitro Characterization of Selective Cannabinoid CB2 Receptor Agonists: Biological Evaluation against Neuroblastoma Cancer Cells” (Molecules, 2022) are described below.

One assay concerns the target T1, hCB2R (Homo sapiens, UniProt P34972).
T1 construct: host or cells: HitHunter CHO-K1 cells
Kind of assay: HitHunter cAMP assay: inhibition of FSK-stimulated cAMP accumulation in CHO cells. In kind it is cell-based. Here is the method:
For the cAMP inhibition assay, cells were treated with 10 μM FSK and synthetized compounds for 90 min to assess compound concentration-dependent activity.
CHO cells stably expressing hCB1R or hCB2R were maintained at 37 °C and 5% CO2 in Gibco Ham’s F-12 nutrient mix (Fisher Scientific, Loughborough, UK ) supplemented with 2 mM L-glutamine, 10% fetal bovine serum (FBS), 0.6% penicillin−streptomycin (Fisher Scientific, Loughborough UK), and the disulfate salt of geneticin (G418) as previously described (Sigma-Aldrich, Poole, UK). For subsequent radioligand displacement assays, membranes were prepared by scraping cells from flasks, centrifuging the cells, and storing the cell pellet at −20 °C. When required for us, cell pellets were defrosted and diluted in tris buffer (50 mM Tris-HCl and 50 mM Tris-base). As we have described in previous studies, HitHunter (cAMP) and PathHunter (βarrestin2) CHO-K1 cells stably expressing hCB1R or hCB2R from DiscoveRx® (Eurofins, Fremont, CA, USA) were maintained at 37 °C, 5% CO2 in F-12 DMEM containing 10% FBS and 1% Pen/Strep with 800 µg/mL geneticin (HitHunter) or 800 µg/mL G418 and 300 µg/mL hygromycin B (PathHunter).
The quantification of FSK-stimulated cAMP accumulation using the DiscoveRx HitHunter assay (DiscoveRx, Eurofins, Fremont, CA, USA) has been described in detail previously elsewhere. Briefly, 20,000 cells/well were plated in low-volume 96-well plates and incubated overnight in Opti-MEM with 1% FBS at 37 °C and 5% CO2. The next day, the media were replaced with cell assay buffer (DiscoveRx). Immediately after this, the cells were simultaneously treated with 10 µM FSK and ligands for 90 min. Subsequent additions of cAMP antibody solution and cAMP working detection solutions followed the manufacturer’s directions (DiscoveRx) and cells were stored for 60 min at room temperature. cAMP solution A (DiscoveRx) was added according to the manufacturer’s directions followed by another 60 min room temperature incubation prior to chemiluminescence being measured on a Cytation5 plate reader (top read, gain 200, integration time 10,000 ms).
Estimates of Ki, EC50, and Emax were determined using non-linear regression three-parameters (GraphPad, Prism, v. 9.0).
Data are fitted to a non−linear regression (three parameter model, GraphPad v. 9.0). Data are mean ± S.E.M. of 6 independent experiments performed in triplicate.
For orientation: Changes in cAMP serve as a functional read-out for many G protein-coupled receptors.

The test system of the next assay is SH-SY5Y cells. Briefly: Sulforhodamine B (SRB) cell viability assay. In kind it is cell-based, human. Here is the method: We tested the anti-proliferative activity of the novel CB2R agonists FG158a, FG160a, FG161a, and LV62 in neuroblastoma cell lines (Figure 4). The compounds were assayed as a mixture of cis and trans isomers. […] After 72 h of treatment, the effect was higher and could also be observed at lower concentrations. The inhibitory effect was confirmed in another neuroblastoma cell line, SK-N-BE cells.
Human neuroblastoma SHSY5Y and SK-N-BE cell lines were grown in DMEM (GIBCO, Paisley, UK) and MEM (Sigma-Aldrich, St.Louis, MO, USA), respectively, supplemented with 2 mM l-glutamine, […], 50 units/mL penicillin and 10% heat-inactivated fetal bovine serum (FBS) in a humidified atmosphere (5% CO2 at 37 °C). Cells were detached as previously described with 0.25% trypsin (Sigma-Aldrich) at 70–80% confluence.
Cells seeded for 24 h in triplicate in 96-well plates at a density of 8000 cells/well were left to adhere overnight. CB2R agonists were added to the culture in triplicate at concentrations ranging from 2.5–40 µM. After 24 h, 48 h, and 72 h, cells were fixed, shaking for 2 h at 4 °C with 50% v/v trichloroacetic acid and washed with distilled water. Cells left overnight to dry were stained with 0.4% w/v SRB in 1% v/v acetic acid (at room temperature for 30 min on a shaker) and then washed with 1% acetic acid to allow for the removal of the unbound dye. TRIS-HCl 10 mM, pH 7.4 was added to the cells and absorbance was measured at 495 nm as previously shown using a Glomax® Discover Microplate Reader (Promega, Madison, WI, USA). In combinatory assays, similar procedures were adopted and the CB2R antagonist SR144528 (1 µM) was added 1 h before the CB2 agonists (10, 20 and 40 µM) to SHSY5Y cells that were harvested as described above after 72 h of incubation.
Figure 4 Inhibition of cell viability. The effect on cell viability by CB2R agonists was determined by sulforhodamine B (SRB) assays in SH-SY5Y and SK-N-BE cell lines. SH-SY5Y cells were treated with the compounds indicated in the figure for 24 h (A), 48 h (B), and 72 h (C) at the concentrations reported in the histograms. SK-N-BE cells were treated with the same compounds for 72 h (D). Figures report cell viability (mean of at least 3 independent experiments ± SEM) as percent of cell survival vs. untreated cells (considered as 100% of survival). […] The statistical significance was calculated with two-way ANOVA using Dunnett’s multiple comparisons test.

T1 sequence (P34972 whole entry): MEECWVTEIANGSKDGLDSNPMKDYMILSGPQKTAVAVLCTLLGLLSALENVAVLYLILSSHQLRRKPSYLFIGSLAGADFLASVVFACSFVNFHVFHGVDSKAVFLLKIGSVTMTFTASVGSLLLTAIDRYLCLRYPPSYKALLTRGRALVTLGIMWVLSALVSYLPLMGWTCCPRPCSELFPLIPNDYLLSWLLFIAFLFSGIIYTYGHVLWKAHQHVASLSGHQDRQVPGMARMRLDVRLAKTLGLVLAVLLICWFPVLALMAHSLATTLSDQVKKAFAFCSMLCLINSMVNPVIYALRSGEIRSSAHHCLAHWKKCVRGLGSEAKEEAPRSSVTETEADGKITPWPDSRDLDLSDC

As a reminder, the EC50 is the concentration that produces a half-maximal response. As a reminder, the IC50 is the concentration that inhibits the measured activity by half. As for `CC1CCC(NC(=O)c2cc3cccnc3n(CCCCCBr)c2=O)CC1` (stereo not shown) [FG158a, 1-(5-bromopentyl)-N-(4-methylcyclohexyl)-2-oxo-1,2-dihydro-1,8-naphthyridine-3-carboxamide], on hCB2R, the EC50 is greater than 10 µM. On hCB2R (CHO cells expressing hCB2R, 10 μM FSK, 90 min), the “modulation of cAMP response” value is recorded as “not to affect this signaling pathway”. Further, the “effect on cell viability” value in the assay on SH-SY5Y cells (24 h, 48 h and 72 h, 2.5–40 µM) is on record as “inhibited cell viability”. In the assay with SH-SY5Y cells (Homo sapiens, 72 h of treatment, SRB, cis/trans mixture), the IC50 stood at 11.8 µM.
